Source: patent US12329737B2, “Dendrilla membranosa compounds, derivatives thereof, and uses thereof” (UNIVERSITY OF SOUTH FLORIDA, priority 2018, dated 2025)
In brackets after ≈: the same amount, converted by molar mass.

Columns and labels:
J774A.1 = assay: mammalian cytotoxicity assay; type: cell-based
[1] = tested on: multidrug resistant S. aureus biofilm; assay: minimum biofilm eradication concentration (MBEC), MRSA biofilm; type: cell-based; conditions: for MBEC90: 90% of population eradicated compared to no treatment
From the text: Each sample tested in triplicate for all concentrations. Calculated based on no drug controls and represented as a log 10 scale. Error=±SEM. MBEC 90/50: level to which 90% or 50% of the population was eradicated compared to no treatment.

MRSA = assay: standard MRSA assay (MIC); type: cell-based; conditions: Staphylococcus aureus
MRSA biofilm = assay: standard biofilm assay; type: cell-based, Staphylococcus aureus

SMILES	Cytotoxicity (μM) against strain J774A.1 (J774A.1) [µM]	further results
CC(=O)O[C@@H]1OC2OC(=O)[C@H](C)c3c([C@@]4(C)CCCC(C)(C)C4)ccc1c32 (stereo partly drawn) [Compound 1, aplysulphurin]	12.3	
CC(=O)O[C@@H]1OC2OC(=O)[C@H](C)C3=C([C@@]4(C)CCCC(C)(C)C4)CCC1C32 (stereo partly drawn) [Compound 2, tetrahydroaplysulphurin]	>133	
COC(=O)[C@H](C)c1c([C@@]2(C)CCCC(C)(C)C2)ccc2c1C(=O)OC2 [Compound 3, membranolide]	76.8	MBEC90 [1]: < 25 mg/mL
COC(=O)[C@H](C)C1=C([C@@]2(C)CCCC(C)(C)C2)CCC2COC(=O)C12 (stereo partly drawn) [Compound 4, tetrahydromembranolide]	64.9	
CO[C@H]1OC(=O)[C@H](C)c2c([C@@]3(C)CCCC(C)(C)C3)ccc(C=O)c21 [Compound 5, membranoid A]	54.6	
CO[C@H]1O[C@H](OC)c2c1ccc([C@@]1(C)CCCC(C)(C)C1)c2[C@@H](C)C(=O)O [Compound 6, membranoid B]	>133	
CO[C@@H]1O[C@@H](OC)c2c1ccc([C@@]1(C)CCCC(C)(C)C1)c2[C@@H](C)C(=O)O [Compound 7, membranoid C]	>133	MRSA biofilm bioactivity [1]: lacked MRSA biofilm bioactivity
CO[C@@H]1O[C@H](OC)c2c1ccc([C@@]1(C)CCCC(C)(C)C1)c2[C@@H](C)C(=O)O [Compound 8, membranoid D]	>133	MRSA biofilm bioactivity [1]: lacked MRSA biofilm bioactivity
CO[C@H]1O[C@@H](OC)c2c1ccc([C@@]1(C)CCCC(C)(C)C1)c2[C@@H](C)C(=O)O [Compound 9, membranoid E]	95	
C[C@H]1C(=O)O[C@@H](O)c2c(C=O)ccc([C@@]3(C)CCCC(C)(C)C3)c21 [Compound 10, membranoid G]	>151	
CO[C@@H]1O[C@@H](OC(C)=O)c2ccc([C@@]3(C)CCCC(C)(C)C3)c([C@@H](C)C(=O)O)c21 [Compound 11, membranoid X]	62.9	
COC(=O)[C@H](C)c1c([C@@]2(C)CCCC(C)(C)C2)ccc2c1[C@H](O)OC2=O [Compound 12, membranoid Y]	>139	
CCC1=C(C=O)[C@H](C(=O)OC)CC[C@@H]1[C@@]1(C)CCCC(C)(C)C1 [Compound 17]		MBEC90 [1]: 50 mg/mL
CC(=O)O[C@@H]1OC2OC(=O)[C@H](C)[C@@]34OO[C@@]([C@@]5(C)CCCC(C)(C)C5)(CCC1C23)O4 (stereo partly drawn) [Compound 18, Tetrahydroaplytrioxolane]		MRSA biofilm bioactivity [1]: lacked MRSA biofilm bioactivity
CC(=O)O[C@@H]1O[C@H](OC(C)=O)[C@H]2C(=O)[C@@H]([C@@]3(C)CCCC(C)(C)C3)CC[C@@H]12 [Compound 19, keto-9, 11-dihydrogracilin A]		MBEC90 [1]: 50 mg/mL
C[C@@H](CO)c1c([C@@]2(C)CCCC(C)(C)C2)ccc(CO)c1CO [Compound 20, Mebranolide triol]		MRSA biofilm bioactivity [1]: lacked MRSA biofilm bioactivity
CC(=O)O[C@@H]1OC2OC(=O)C3=C(C)C([C@@]4(C)CCCC(C)(C)C4)CCC1C32 (stereo partly drawn) [Compound 24, Darwinolide]	20.13	mammalian (J773) toxicity (J774A.1; J773 cells, mammalian cytotoxicity assay): 73.4 µM; MIC (MRSA): ~133 µM (≈ 50 µg/mL); MBEC90 [1]: 35 mg/mL; MIC in a standard biofilm assay (MRSA biofilm): 33.2 µM (≈ 12.5 µg/mL)
